The values that follow come from US20240300936A1 (priority 2021, published 2024).

For the test, the system named is HELA cells. Description: HELA cell proliferation assay (CellTitre-Glo, 6 days). Format: cell-based. The settings on record: Homo sapiens, 144 h; HELA cells, 6 days treatment, CellTitre-Glo; read-out: HeLa pIC50 (converted).
Turning to `Cn1ncc2ccc(-c3nc(N)nc(NC(C)(C)c4ccn(C(F)F)n4)n3)cc21` [Example 101, N2-[1-[1-(difluoromethyl)pyrazol-3-yl]-1-methyl-ethyl]-6-(1-methylindazol-6-yl)-1,3,5-triazine-2,4-diamine], the IC50 is 0.257 µM. As to `CC(C)(Nc1nc(N)nc(-c2ccc3cn[nH]c3c2F)n1)c1ccn(C(F)F)n1` [Example 102, N2-[1-[1-(difluoromethyl)pyrazol-3-yl]-1-methyl-ethyl]-6-(7-fluoro-1H-indazol-6-yl)-1,3,5-triazine-2,4-diamine], the IC50 is 0.295 µM. As for `CC(C)(Nc1nc(N)nc(-c2cc(F)c3cn[nH]c3c2)n1)c1ccn(C(F)F)n1` [Example 104, N2-[1-[1-(difluoromethyl)pyrazol-3-yl]-1-methyl-ethyl]-6-(4-fluoro-1H-indazol-6-yl)-1,3,5-triazine-2,4-diamine], the IC50 is 0.219 µM.
